Laboratory results reported in PubChem BioAssay (NCI).
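In this assay, cells in 96-well plates receive the compound at five concentrations for 48 hours. Endpoints are linearly interpolated between the surrounding concentrations. Here, GI50 denotes the concentration required for 50% inhibition of growth. TGI: total growth inhibition.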

Experiments:
Experiment in all cases: NCI anticancer screen, dose series, 48 h
[1] = test system: UO-31 renal
[2] = test system: MDA-MB-231 breast
[3] = test system: HOP-92 NSCLC
[4] = test system: HT29 colon
[5] = test system: NCI/ADR-RES ovarian
[6] = test system: SR leukemia
[7] = test system: M14 melanoma
[8] = test system: NCI-H23 lung
[9] = test system: MOLT-4 leukemia
[10] = test system: A549 NSCLC
[11] = test system: COLO 205 colon
[12] = test system: DU-145 prostate
[13] = test system: UACC-62 melanoma
[14] = test system: SF-268 CNS
[15] = test system: LOX IMVI melanoma
[16] = test system: MALME-3M melanoma
[17] = test system: BT-549 breast
[18] = test system: EKVX NSCLC
[19] = test system: SN12C renal
[20] = test system: HL-60(TB) leukemia
[21] = test system: HCT-15 colon
[22] = test system: PC-3 prostate
[23] = test system: SK-OV-3 ovarian
[24] = test system: ACHN renal
[25] = test system: RPMI-8226 leukemia
[26] = test system: SF-539 CNS
[27] = test system: OVCAR-4 ovarian
[28] = test system: SK-MEL-2 melanoma
[29] = test system: SW-620 colon
[30] = test system: A498 renal
[31] = test system: HCC-2998 colon
[32] = test system: U251 CNS
[33] = test system: HS 578T breast
[34] = test system: NCI-H460 lung
[35] = test system: MCF7 breast
[36] = test system: OVCAR-3 ovarian
[37] = test system: SK-MEL-5 melanoma
[38] = test system: SNB-75 CNS
[39] = test system: T-47D breast
[40] = test system: SNB-19 CNS
[41] = test system: RXF 393 renal
[42] = test system: CCRF-CEM leukemia
[43] = test system: IGROV1 ovarian
[44] = test system: MDA-MB-435
[45] = test system: SF-295 CNS
[46] = test system: TK-10 renal
[47] = test system: HOP-62 NSCLC
[48] = test system: CAKI-1 renal
[49] = test system: K-562 leukemia
[50] = test system: OVCAR-8 ovarian
[51] = test system: SK-MEL-28 melanoma
[52] = test system: KM12 colon
[53] = test system: UACC-257 melanoma
[54] = test system: HCT-116 colon
[55] = test system: 786-0 renal
[56] = test system: NCI-H226 lung
[57] = test system: NCI-H522 lung
[58] = test system: OVCAR-5 ovarian

With COc1cccc(NC2=C(Cl)C(=O)N(Cc3ccc(Cl)cc3)C2=O)c1 the GI50 [1] was 7.88 µM, the TGI [1] was 31.7 µM and the GI50 [2] was 2.15 µM. It also gave a GI50 [3] of 13.1 µM, a TGI [3] of 35.4 µM and a GI50 [4] of 2.72 µM. The TGI [4] was over 100 µM, the GI50 [5] was 1.22 µM and the TGI [5] was 5.39 µM. It also gave a GI50 [6] of 0.261 µM, a GI50 [7] of 1.66 µM and a TGI [7] of 7.71 µM. The GI50 [8] was 2.84 µM, the TGI [8] was 9.81 µM and the GI50 [9] was 1.36 µM. For the same molecule, the TGI [9] was over 100 µM, the GI50 [10] was 2.67 µM and the TGI [10] was 26.8 µM. The GI50 [11] was 4.96 µM, the TGI [11] was 39.8 µM and the GI50 [12] was 3.8 µM. It also gave a TGI [12] of 12.1 µM, a GI50 [13] of 1.97 µM and a TGI [13] of 18.3 µM. For the same molecule, the GI50 [14] was 3.02 µM, the TGI [14] was 13.9 µM and the GI50 [15] was 1.45 µM. The TGI [15] was over 35.3 µM, the GI50 [16] was 1.17 µM and the TGI [16] was 14.1 µM. For the same molecule, the GI50 [17] was 0.655 µM, the TGI [17] was 4.18 µM and the GI50 [18] was 12.5 µM. It also gave a TGI [18] of 38.8 µM, a GI50 [19] of 2.61 µM and a TGI [19] of 12.9 µM. For the same molecule, the GI50 [20] was 3.15 µM, the TGI [20] was 60.8 µM and the GI50 [21] was 1.05 µM. It also gave a TGI [21] of 8.62 µM, a GI50 [22] of 1.68 µM and a TGI [22] of 10.4 µM. It also gave a GI50 [23] of 8.09 µM, a TGI [23] of 60.6 µM and a GI50 [24] of 6.43 µM. The TGI [24] was 49.2 µM, the GI50 [25] was 0.985 µM and the TGI [25] was over 20.3 µM. It also gave a GI50 [26] of 1.73 µM, a TGI [26] of 5.7 µM and a GI50 [27] of 9.69 µM. For the same molecule, the TGI [27] was over 71.5 µM, the GI50 [28] was 12.5 µM and the TGI [28] was over 23.8 µM. For the same molecule, the GI50 [29] was 0.847 µM, the TGI [29] was 14.7 µM and the GI50 [30] was 11.8 µM. The TGI [30] was 27.3 µM, the GI50 [31] was 2.64 µM and the TGI [31] was 12.7 µM. For the same molecule, the GI50 [32] was 1.24 µM, the TGI [32] was over 34.6 µM and the GI50 [33] was 3.21 µM. It also gave a TGI [33] of 13.3 µM, a GI50 [34] of 2.93 µM and a TGI [34] of 18.5 µM. The GI50 [35] was 2.09 µM, the TGI [35] was over 38.8 µM and the GI50 [36] was 1.62 µM. It also gave a TGI [36] of 7.89 µM, a GI50 [37] of 1.21 µM and a TGI [37] of 6.09 µM. It also gave a GI50 [38] of 3.22 µM, a TGI [38] of over 100 µM and a GI50 [39] of 10.9 µM. It also gave a TGI [39] of over 100 µM, a GI50 [40] of 8.25 µM and a TGI [40] of over 100 µM. The GI50 [41] was 0.788 µM, the TGI [41] was 6.26 µM and the TGI [42] was over 68.9 µM. The GI50 [43] was 11.9 µM, the TGI [43] was over 37.4 µM and the GI50 [44] was 0.234 µM. For the same molecule, the TGI [44] was 1.61 µM, the GI50 [45] was 2.35 µM and the TGI [45] was 12.8 µM. It also gave a GI50 [46] of 3.45 µM, a TGI [46] of 27.3 µM and a GI50 [47] of 2.4 µM. The TGI [47] was 12.3 µM, the GI50 [48] was 2.25 µM and the TGI [48] was 17.5 µM. The GI50 [49] was 0.801 µM, the TGI [49] was over 46.3 µM and the GI50 [50] was 1.82 µM. The TGI [50] was over 43.1 µM, the GI50 [51] was 8.37 µM and the TGI [51] was 36.3 µM. The GI50 [52] was 2.34 µM, the TGI [52] was 30.5 µM and the GI50 [53] was 3.12 µM. It also gave a TGI [53] of 30.3 µM, a GI50 [54] of 1.59 µM and a TGI [54] of 13.5 µM. The GI50 [55] was 1.54 µM, the TGI [55] was 8.39 µM and the GI50 [56] was 1.27 µM. For the same molecule, the TGI [56] was 6.86 µM, the GI50 [57] was 4.76 µM and the TGI [57] was 22.9 µM. It also gave a GI50 [58] of 10 µM and a TGI [58] of 43.2 µM.
